We go through five compounds from ChEMBL document CHEMBL4823291, “Discovery of 5,6,7,8-tetrahydropyrido[3,4-d]pyrimidine derivatives as novel selective Axl inhibitors” (Bioorg Med Chem Lett, 2021).

pIC50: −log10 of the molar value.

As a reminder, the pIC50 is the negative decadic logarithm of the IC50, by convention in mol/L. A higher pIC50 goes with a small IC50.

For the first test, the species on record is Homo sapiens. Briefly: Ratio of IC50 for Mer (unknown origin) to IC50 for Axl (unknown origin).
On to `CC(C)n1cc(C(=O)Nc2ccc(Oc3ncnc4c3CN(C(=O)C3CC3)C4)c(F)c2)c(=O)n(-c2ccc(F)cc2)c1=O`, for which the Ratio IC50 was less than 1.5.
Turning to `CC(C)n1cc(C(=O)Nc2ccc(Oc3ncnc4c3CN(C(=O)CN3CCOCC3)C4)c(F)c2)c(=O)n(-c2ccc(F)cc2)c1=O`, the Ratio IC50 is 14.
Turning to `CN1CCC(CN2CCc3c(ncnc3Oc3ccc(NC(=O)c4cn(C5CCCC5)c(=O)n(-c5ccc(F)cc5)c4=O)cc3F)C2)CC1`, the Ratio IC50 was found to be 19.
As for `CC(C)n1cc(C(=O)Nc2ccc(Oc3ncnc4c3CCN(CC(=O)N3CCN(C)CC3)C4)c(F)c2)c(=O)n(-c2ccc(F)cc2)c1=O`, the Ratio IC50 worked out at 22.
Consider `CN1CCC(CN2CCc3c(ncnc3Oc3ccc(NC(=O)c4cn(CC5CCC5)c(=O)n(-c5ccc(F)cc5)c4=O)cc3F)C2)CC1`, for which the Ratio IC50 was found to be 37.

Another test deals with T1, Tyrosine-protein kinase receptor UFO (Homo sapiens, UniProt P30530).
T1 sequence (P30530 whole entry): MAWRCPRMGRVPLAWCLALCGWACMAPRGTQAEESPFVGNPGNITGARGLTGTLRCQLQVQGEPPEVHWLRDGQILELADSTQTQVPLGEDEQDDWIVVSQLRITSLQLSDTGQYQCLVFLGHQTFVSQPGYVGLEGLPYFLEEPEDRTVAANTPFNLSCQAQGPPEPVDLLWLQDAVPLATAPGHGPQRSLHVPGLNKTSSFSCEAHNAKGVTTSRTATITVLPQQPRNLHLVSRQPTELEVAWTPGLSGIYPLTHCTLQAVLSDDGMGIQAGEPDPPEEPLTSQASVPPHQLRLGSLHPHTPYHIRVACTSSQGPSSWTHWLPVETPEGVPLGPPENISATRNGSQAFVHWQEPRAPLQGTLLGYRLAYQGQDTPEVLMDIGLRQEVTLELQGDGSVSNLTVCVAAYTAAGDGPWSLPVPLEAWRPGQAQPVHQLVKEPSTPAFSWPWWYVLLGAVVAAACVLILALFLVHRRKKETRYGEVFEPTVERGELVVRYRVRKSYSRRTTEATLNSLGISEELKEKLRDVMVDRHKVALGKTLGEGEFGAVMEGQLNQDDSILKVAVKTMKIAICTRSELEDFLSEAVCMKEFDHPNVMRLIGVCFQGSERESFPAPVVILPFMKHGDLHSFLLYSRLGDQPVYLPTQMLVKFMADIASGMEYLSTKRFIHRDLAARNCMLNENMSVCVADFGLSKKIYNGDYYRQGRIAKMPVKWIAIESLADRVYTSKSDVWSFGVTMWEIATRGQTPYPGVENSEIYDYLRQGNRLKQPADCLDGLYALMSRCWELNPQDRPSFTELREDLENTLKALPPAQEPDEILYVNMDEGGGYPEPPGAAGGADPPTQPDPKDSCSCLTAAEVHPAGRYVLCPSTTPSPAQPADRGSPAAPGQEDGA
Kind of test: Inhibition of Axl (unknown origin) by cell free assay.
As to `CC(C)n1cc(C(=O)Nc2ccc(Oc3ncnc4c3CN(C(=O)C3CC3)C4)c(F)c2)c(=O)n(-c2ccc(F)cc2)c1=O`, the pIC50 is 8.57.
`CC(C)n1cc(C(=O)Nc2ccc(Oc3ncnc4c3CN(C(=O)CN3CCOCC3)C4)c(F)c2)c(=O)n(-c2ccc(F)cc2)c1=O` gave a pIC50 of 7.80.
`CN1CCC(CN2CCc3c(ncnc3Oc3ccc(NC(=O)c4cn(C5CCCC5)c(=O)n(-c5ccc(F)cc5)c4=O)cc3F)C2)CC1` gave a negative logarithm of the IC50 (pIC50) of 8.57.
`CC(C)n1cc(C(=O)Nc2ccc(Oc3ncnc4c3CCN(CC(=O)N3CCN(C)CC3)C4)c(F)c2)c(=O)n(-c2ccc(F)cc2)c1=O` showed a negative-log IC50 (pIC50) of 8.02.
In the case of `CN1CCC(CN2CCc3c(ncnc3Oc3ccc(NC(=O)c4cn(CC5CCC5)c(=O)n(-c5ccc(F)cc5)c4=O)cc3F)C2)CC1`, the pIC50 was 8.62.

The next test relates to BaF3. Briefly: Ratio of IC50 for Mer in mouse BaF3 cells to IC50 for Axl in mouse BaF3 cells. The format is cell-based.
For the compound `CC(C)n1cc(C(=O)Nc2ccc(Oc3ncnc4c3CN(C(=O)C3CC3)C4)c(F)c2)c(=O)n(-c2ccc(F)cc2)c1=O`, the Ratio IC50 is 2.8.
On the same count and under the same terms, under `CC(C)n1cc(C(=O)Nc2ccc(Oc3ncnc4c3CN(C(=O)CN3CCOCC3)C4)c(F)c2)c(=O)n(-c2ccc(F)cc2)c1=O` stands 2.7; under `CN1CCC(CN2CCc3c(ncnc3Oc3ccc(NC(=O)c4cn(C5CCCC5)c(=O)n(-c5ccc(F)cc5)c4=O)cc3F)C2)CC1`, 4.3; under `CC(C)n1cc(C(=O)Nc2ccc(Oc3ncnc4c3CCN(CC(=O)N3CCN(C)CC3)C4)c(F)c2)c(=O)n(-c2ccc(F)cc2)c1=O`, 4.7.
Same read-out and setting: with `CN1CCC(CN2CCc3c(ncnc3Oc3ccc(NC(=O)c4cn(CC5CCC5)c(=O)n(-c5ccc(F)cc5)c4=O)cc3F)C2)CC1` the figure was 8.1.

The target in a further test is T2, Tyrosine-protein kinase receptor UFO (Mus musculus, UniProt Q00993).
T2 sequence (Q00993 whole entry): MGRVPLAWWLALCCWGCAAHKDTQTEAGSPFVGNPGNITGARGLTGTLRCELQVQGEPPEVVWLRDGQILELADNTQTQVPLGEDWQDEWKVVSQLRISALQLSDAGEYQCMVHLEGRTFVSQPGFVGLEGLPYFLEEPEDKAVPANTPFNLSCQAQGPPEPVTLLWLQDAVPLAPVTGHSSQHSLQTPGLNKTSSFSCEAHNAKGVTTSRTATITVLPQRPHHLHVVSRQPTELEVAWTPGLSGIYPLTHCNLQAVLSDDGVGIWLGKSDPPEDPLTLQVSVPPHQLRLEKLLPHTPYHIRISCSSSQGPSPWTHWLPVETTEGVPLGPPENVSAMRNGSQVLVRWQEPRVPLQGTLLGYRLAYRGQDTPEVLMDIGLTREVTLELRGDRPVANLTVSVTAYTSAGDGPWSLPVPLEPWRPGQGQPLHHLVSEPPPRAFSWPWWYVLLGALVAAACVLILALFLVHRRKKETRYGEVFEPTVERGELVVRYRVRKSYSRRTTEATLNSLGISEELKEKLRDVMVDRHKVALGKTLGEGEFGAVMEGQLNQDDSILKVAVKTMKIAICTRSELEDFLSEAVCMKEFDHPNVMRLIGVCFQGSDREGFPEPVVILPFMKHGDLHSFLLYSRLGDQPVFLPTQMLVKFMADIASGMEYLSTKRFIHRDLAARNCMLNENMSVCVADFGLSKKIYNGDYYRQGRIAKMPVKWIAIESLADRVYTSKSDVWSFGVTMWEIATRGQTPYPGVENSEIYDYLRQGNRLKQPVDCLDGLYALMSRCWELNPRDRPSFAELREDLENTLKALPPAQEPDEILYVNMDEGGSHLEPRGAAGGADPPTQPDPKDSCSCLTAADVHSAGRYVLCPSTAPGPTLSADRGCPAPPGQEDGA
Briefly: Inhibition of Axl in mouse BaF3 cells. Type of test: cell-based.
The compound `CC(C)n1cc(C(=O)Nc2ccc(Oc3ncnc4c3CN(C(=O)C3CC3)C4)c(F)c2)c(=O)n(-c2ccc(F)cc2)c1=O` showed a negative logarithm of the IC50 (pIC50) of 7.92.
`CC(C)n1cc(C(=O)Nc2ccc(Oc3ncnc4c3CN(C(=O)CN3CCOCC3)C4)c(F)c2)c(=O)n(-c2ccc(F)cc2)c1=O` showed a pIC50 of 6.57.
`CN1CCC(CN2CCc3c(ncnc3Oc3ccc(NC(=O)c4cn(C5CCCC5)c(=O)n(-c5ccc(F)cc5)c4=O)cc3F)C2)CC1` gave a pIC50 of 8.10.
In turn, `CC(C)n1cc(C(=O)Nc2ccc(Oc3ncnc4c3CCN(CC(=O)N3CCN(C)CC3)C4)c(F)c2)c(=O)n(-c2ccc(F)cc2)c1=O` had a pIC50 of 7.11.
For the compound `CN1CCC(CN2CCc3c(ncnc3Oc3ccc(NC(=O)c4cn(CC5CCC5)c(=O)n(-c5ccc(F)cc5)c4=O)cc3F)C2)CC1`, the pIC50 is 7.80.

In another test the target is T3, Tyrosine-protein kinase Mer (Mus musculus, UniProt Q60805).
T3 sequence (Q60805 whole entry): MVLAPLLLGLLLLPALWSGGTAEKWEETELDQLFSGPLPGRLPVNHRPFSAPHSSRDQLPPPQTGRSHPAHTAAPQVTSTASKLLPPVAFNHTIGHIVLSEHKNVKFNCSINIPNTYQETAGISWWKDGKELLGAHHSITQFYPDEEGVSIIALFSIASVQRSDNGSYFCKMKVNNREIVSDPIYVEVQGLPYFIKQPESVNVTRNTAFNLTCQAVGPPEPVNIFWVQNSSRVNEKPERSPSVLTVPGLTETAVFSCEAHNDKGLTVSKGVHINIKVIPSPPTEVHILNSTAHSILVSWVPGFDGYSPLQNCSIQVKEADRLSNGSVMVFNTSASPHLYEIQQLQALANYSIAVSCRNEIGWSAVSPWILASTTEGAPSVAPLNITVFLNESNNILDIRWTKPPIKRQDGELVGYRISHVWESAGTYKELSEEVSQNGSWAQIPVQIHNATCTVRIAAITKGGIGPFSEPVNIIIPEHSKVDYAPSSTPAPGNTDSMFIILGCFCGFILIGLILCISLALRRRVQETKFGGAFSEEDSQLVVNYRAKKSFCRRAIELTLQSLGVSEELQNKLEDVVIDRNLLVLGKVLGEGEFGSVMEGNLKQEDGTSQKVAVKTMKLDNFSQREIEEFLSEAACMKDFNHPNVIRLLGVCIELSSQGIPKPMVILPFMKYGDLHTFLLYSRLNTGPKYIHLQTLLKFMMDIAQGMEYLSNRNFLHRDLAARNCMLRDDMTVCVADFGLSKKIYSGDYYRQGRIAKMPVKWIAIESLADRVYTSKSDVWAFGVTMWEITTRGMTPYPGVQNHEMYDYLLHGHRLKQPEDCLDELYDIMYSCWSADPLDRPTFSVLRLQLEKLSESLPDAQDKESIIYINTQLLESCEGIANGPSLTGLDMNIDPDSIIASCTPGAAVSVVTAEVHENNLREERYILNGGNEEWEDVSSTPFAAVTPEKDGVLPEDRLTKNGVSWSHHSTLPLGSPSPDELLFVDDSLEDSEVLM
Kind of test: Inhibition of Mer in mouse BaF3 cells. Type of test: cell-based.
`CC(C)n1cc(C(=O)Nc2ccc(Oc3ncnc4c3CN(C(=O)C3CC3)C4)c(F)c2)c(=O)n(-c2ccc(F)cc2)c1=O` had a pIC50 of 7.47.
In the case of `CC(C)n1cc(C(=O)Nc2ccc(Oc3ncnc4c3CN(C(=O)CN3CCOCC3)C4)c(F)c2)c(=O)n(-c2ccc(F)cc2)c1=O`, the pIC50 is 6.14.
For `CN1CCC(CN2CCc3c(ncnc3Oc3ccc(NC(=O)c4cn(C5CCCC5)c(=O)n(-c5ccc(F)cc5)c4=O)cc3F)C2)CC1`, the pIC50 was 7.47.
Still for that read-out and setting: under `CC(C)n1cc(C(=O)Nc2ccc(Oc3ncnc4c3CCN(CC(=O)N3CCN(C)CC3)C4)c(F)c2)c(=O)n(-c2ccc(F)cc2)c1=O` stands 6.43.
On to `CN1CCC(CN2CCc3c(ncnc3Oc3ccc(NC(=O)c4cn(CC5CCC5)c(=O)n(-c5ccc(F)cc5)c4=O)cc3F)C2)CC1`, for which the pIC50 was 6.89.

For the next test, the target named is T4, Tyrosine-protein kinase Mer (Homo sapiens, UniProt Q12866).
T4 sequence (Q12866 whole entry): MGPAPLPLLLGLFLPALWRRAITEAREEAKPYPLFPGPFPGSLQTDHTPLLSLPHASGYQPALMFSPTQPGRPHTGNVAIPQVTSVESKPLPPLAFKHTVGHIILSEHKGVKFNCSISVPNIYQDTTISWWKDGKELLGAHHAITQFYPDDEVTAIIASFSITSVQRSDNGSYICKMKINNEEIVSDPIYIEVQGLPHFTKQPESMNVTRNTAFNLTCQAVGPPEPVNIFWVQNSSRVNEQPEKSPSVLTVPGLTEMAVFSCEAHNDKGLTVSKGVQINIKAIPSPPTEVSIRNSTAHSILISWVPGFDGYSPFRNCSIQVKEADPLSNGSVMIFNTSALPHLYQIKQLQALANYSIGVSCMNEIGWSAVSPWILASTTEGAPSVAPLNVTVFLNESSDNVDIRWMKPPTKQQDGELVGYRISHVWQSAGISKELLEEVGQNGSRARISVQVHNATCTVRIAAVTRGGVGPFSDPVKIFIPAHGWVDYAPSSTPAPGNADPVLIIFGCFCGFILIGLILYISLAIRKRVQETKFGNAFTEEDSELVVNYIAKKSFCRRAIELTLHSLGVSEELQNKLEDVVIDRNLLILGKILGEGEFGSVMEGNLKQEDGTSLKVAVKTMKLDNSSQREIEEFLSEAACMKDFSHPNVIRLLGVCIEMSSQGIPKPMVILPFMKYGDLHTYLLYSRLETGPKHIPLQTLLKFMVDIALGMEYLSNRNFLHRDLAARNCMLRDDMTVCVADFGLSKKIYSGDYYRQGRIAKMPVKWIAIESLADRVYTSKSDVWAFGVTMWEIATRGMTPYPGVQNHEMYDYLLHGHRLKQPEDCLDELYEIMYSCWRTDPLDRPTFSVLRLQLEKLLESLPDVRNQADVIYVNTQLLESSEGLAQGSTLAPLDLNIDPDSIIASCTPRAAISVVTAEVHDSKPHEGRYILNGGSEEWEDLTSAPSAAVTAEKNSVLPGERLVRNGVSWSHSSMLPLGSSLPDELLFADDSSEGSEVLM
Kind of test: Inhibition of Mer (unknown origin) by cell free assay.
Compound `CC(C)n1cc(C(=O)Nc2ccc(Oc3ncnc4c3CN(C(=O)C3CC3)C4)c(F)c2)c(=O)n(-c2ccc(F)cc2)c1=O` had a pIC50 of more than 8.39.
`CC(C)n1cc(C(=O)Nc2ccc(Oc3ncnc4c3CN(C(=O)CN3CCOCC3)C4)c(F)c2)c(=O)n(-c2ccc(F)cc2)c1=O` showed a pIC50 of 6.64.
Same read-out and setting: under `CN1CCC(CN2CCc3c(ncnc3Oc3ccc(NC(=O)c4cn(C5CCCC5)c(=O)n(-c5ccc(F)cc5)c4=O)cc3F)C2)CC1` stands 7.29; under `CC(C)n1cc(C(=O)Nc2ccc(Oc3ncnc4c3CCN(CC(=O)N3CCN(C)CC3)C4)c(F)c2)c(=O)n(-c2ccc(F)cc2)c1=O`, 6.68; under `CN1CCC(CN2CCc3c(ncnc3Oc3ccc(NC(=O)c4cn(CC5CCC5)c(=O)n(-c5ccc(F)cc5)c4=O)cc3F)C2)CC1`, 7.06.
